The text below walks through data of publication PMC5623949, “Exploiting the 2-Amino-1,3,4-thiadiazole Scaffold To Inhibit Trypanosoma brucei Pteridine Reductase in Support of Early-Stage Drug Discovery” (ACS Omega, 2017).

Series [1] concerns the target T1, hERG (Homo sapiens, UniProt Q12809).
T1 construct: gene KCNH2
Also noted: hERG channel inhibition. Here is the method: Independent of the effect of any antiparasitic potential of compounds, they were evaluated using a panel of early-toxicity assays comprising cytotoxicity (A549, human lung adenocarcinoma epithelial cell line and WI-38, human lung fibroblasts), mitochondrial toxicity (786-O, human renal carcinoma cell line), hERG inhibition,[31] cytochrome P450 inhibition (CYP1A2, CYP2C9, CYP2C19, CYP2D6, and CYP3A4),[31] and Aurora B kinase inhibition. […] For the two compounds active against TbPTR1 (4m and 4o), IC50 against hERG, cytochrome P450, and mitochondrial toxicity were determined (reported in Supporting Information). We observed that the dose of compounds 4m, 4o, 4c, and 3k was 4 μM in the potentiation assays. […] In the case of hERG, CYP2D6, CYP2A9, CYP2C19, and mitochondrial toxicity, there is a selectivity index of around 3–4 fold, thus showing an acceptable profile.

Series [2] relates to T. b. brucei Lister 427 bloodstream forms. Put plainly: T. brucei resazurin assay for MTX potentiation and folic acid supplementation. In kind it is cell-based, Trypanosoma brucei brucei. Conditions: for antiparasitic effect as single agent: compound alone, 4m at 50 μM. How it is done: T. b. brucei Lister 427 bloodstream forms were grown at 37 °C and 5% CO2 in a complete HMI-9 medium, supplemented with 10% FCS and 100 UI/mL of penicillin/streptomycin. The cultures were diluted until a cell density of 2 × 10^6/mL was reached. The efficacy of compounds against T. brucei bloodstream forms was evaluated using a modified resazurin-based assay previously described.[46] The compounds were prepared from a stock solution in 10 mM DMSO and diluted in HMI-9 (supplemented or not with 1 mM folic acid, Sigma-Aldrich) to 40 μM work solution (0.4% DMSO, with the DMSO limit in the assay being 0.4%). […] The 40 μM work solution was then used to perform serial dilutions (1:2) in a 96-well plate. Upon compound addition to the test plate, the mid-log bloodstream forms were added (100 μL) in complete HMI-9 medium (supplemented or not with 1 mM folic acid) at a final cell density of 1 × 10^4/mL in a final well volume of 200 μL with a maximum DMSO concentration of 0.2%. Following incubation for 72 h at 37 °C and 5% CO2, 20 μL of 0.5 mM resazurin solution was added, and the plates were incubated further for 4 h under the same conditions. Fluorescence was measured at 540 and 620 nm excitation and emission wavelengths, respectively, using a Synergy 2 multi-mode reader (BioTek). […] This approach requires the use of both compounds at their EC50 potency in the combination, which is impossible to be detected for compound 4m having no intrinsic antiparasitic activity as a single agent at the tested concentrations. Folic acid (1 mM) was chosen on the basis of the following experiments. The stock solution of 10 mM folic acid dissolved in NaOH solution was used to perform a dose–response curve with folic acid alone to evaluate the maximum amount we could use without compromising parasite growth due to pH modification of the media. […] The IC50 values reported are the averages of the results obtained in at least two independent experiments. Pentamidine was used as the reference drug and internal control in all assays.
Background: Alamar Blue is a resazurin reagent that responds to reducing activity.

In another series the target is CYP3A4 (Homo sapiens, UniProt P08684). Put plainly: in vitro. On the set-up: cytochrome P450 isoform inhibition liability assay.
Sequence of CYP3A4 (P08684 whole entry, canonical isoform): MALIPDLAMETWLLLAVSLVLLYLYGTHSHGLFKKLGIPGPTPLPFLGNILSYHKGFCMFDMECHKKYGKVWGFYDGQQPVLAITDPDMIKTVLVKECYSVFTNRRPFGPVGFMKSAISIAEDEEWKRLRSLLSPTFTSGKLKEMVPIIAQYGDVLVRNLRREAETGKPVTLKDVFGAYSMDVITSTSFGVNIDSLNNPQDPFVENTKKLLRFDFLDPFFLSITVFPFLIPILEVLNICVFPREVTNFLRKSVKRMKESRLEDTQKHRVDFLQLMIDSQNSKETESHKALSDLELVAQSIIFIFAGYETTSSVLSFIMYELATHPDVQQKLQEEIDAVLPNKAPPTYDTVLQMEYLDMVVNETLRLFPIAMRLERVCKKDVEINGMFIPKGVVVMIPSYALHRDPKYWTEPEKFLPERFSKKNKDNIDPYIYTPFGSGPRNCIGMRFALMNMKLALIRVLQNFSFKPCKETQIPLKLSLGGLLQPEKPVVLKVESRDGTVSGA
A further series concerns the target CYP2D6 (Homo sapiens, UniProt P10635). Put plainly: in vitro. Also noted: cytochrome P450 isoform inhibition liability assay.
Series [3] concerns the target T1, hERG. Also noted: hERG inhibition liability assay.
The test system of series [4] is T. b. brucei Lister 427 bloodstream forms. The experiment in a line: In vitro activity against T. brucei (HTS SYBR Green I growth inhibition assay). In kind it is cell-based, Trypanosoma brucei brucei. Particulars: 50 μM, standard deviation within ±10% of the value; for inhibition at 50 µM: Trypanosoma brucei, read-out: % Inhibition T. brucei at 50 μM.

Entries after “also recorded” stand apart in the source; their conditions may differ.

T1 sequence (Q12809 whole entry): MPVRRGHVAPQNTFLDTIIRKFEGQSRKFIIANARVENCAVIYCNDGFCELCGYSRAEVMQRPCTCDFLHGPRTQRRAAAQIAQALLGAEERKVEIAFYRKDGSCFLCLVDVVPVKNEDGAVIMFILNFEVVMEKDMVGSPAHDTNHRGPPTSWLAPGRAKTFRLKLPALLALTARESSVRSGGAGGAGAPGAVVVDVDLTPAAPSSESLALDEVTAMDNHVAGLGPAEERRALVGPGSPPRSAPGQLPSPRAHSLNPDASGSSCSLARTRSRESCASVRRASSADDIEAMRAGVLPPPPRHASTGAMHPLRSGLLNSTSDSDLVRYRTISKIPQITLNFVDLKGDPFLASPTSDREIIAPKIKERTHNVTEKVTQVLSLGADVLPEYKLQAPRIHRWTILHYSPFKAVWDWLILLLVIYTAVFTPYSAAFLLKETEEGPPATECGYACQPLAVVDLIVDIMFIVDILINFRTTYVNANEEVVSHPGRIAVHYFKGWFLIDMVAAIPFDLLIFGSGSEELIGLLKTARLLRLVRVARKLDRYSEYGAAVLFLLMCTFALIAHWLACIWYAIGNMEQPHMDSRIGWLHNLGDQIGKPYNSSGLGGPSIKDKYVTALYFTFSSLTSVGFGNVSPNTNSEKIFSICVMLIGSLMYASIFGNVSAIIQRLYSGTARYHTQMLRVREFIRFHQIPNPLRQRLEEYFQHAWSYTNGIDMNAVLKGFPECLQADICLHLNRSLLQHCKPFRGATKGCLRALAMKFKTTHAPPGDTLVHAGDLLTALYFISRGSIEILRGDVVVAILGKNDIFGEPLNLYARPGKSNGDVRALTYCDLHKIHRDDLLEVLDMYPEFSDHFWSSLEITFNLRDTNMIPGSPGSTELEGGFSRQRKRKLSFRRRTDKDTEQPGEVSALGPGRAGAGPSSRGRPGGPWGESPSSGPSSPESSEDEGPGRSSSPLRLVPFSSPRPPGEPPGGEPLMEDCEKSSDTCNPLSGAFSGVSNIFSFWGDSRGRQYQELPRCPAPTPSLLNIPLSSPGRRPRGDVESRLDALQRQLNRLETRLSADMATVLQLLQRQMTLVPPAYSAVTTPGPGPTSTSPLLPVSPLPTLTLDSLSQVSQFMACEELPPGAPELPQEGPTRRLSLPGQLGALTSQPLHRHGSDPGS
Sequence of CYP2D6 (P10635 whole entry, canonical isoform): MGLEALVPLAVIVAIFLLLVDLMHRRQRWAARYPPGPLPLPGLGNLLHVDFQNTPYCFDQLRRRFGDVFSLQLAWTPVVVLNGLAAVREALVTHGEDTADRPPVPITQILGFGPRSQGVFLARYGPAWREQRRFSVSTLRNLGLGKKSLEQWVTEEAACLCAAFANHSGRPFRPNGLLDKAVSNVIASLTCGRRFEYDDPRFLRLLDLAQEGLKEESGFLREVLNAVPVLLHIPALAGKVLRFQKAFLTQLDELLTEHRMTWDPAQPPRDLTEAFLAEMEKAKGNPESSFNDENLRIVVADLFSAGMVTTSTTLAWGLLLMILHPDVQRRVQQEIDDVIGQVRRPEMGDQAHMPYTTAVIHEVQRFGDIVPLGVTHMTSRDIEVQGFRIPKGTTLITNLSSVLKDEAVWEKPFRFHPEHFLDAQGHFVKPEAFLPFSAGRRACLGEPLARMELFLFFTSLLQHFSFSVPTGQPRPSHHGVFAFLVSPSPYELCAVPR

For the molecule `Nc1nnc(NCc2ccc(-c3ccccc3)cc2)s1` [4m], at hERG [1], the inhibition at 10 µM came to 52.6 ± 11.6%. In addition, the “effect of 1 mM folic acid on T. b. brucei growth inhibition” value in series [2] (1 mM folic acid, MTX alone or equimolar 4m + MTX) is listed as “reversed; also recorded: rescue cell growth”. The “antiparasitic effect as single agent” value in series [2] was “did not show any significant antiparasitic effect”. For the same molecule, the concentration for half-maximal inhibition (IC50) is 12.1 µM at CYP3A4, 11.5 µM at CYP2D6 and 3.6 µM at hERG [3]. The inhibition at 50 µM in series [4] was 6.6%.
For the molecule `Nc1nnc(NCCc2cccs2)s1` [4o, N2G(2G(thiophenG2Gyl)ethyl)G1,3,4GthiadiazoleG2,5Gdiamine], the inhibition at 10 µM at hERG [1] was determined as 95.4 ± 8%. Moreover, in series [2], the “antiparasitic effect as single agent” value was “low T. brucei cell inhibitory activity”. Besides, the concentration for half-maximal inhibition (IC50) on CYP3A4 was 34.4 µM; at CYP2D6, 12.4 µM; on hERG [3] it was 3.1 µM. In addition, the “% Inhibition T. brucei at 50 μM” value in series [4] is listed as “poor antiparasitic activity”. Further, the inhibition at 50 µM in series [4] was found to be 37.9%.

As a reminder, the inhibition is the change of the read-out against control, counted positive when it falls. One may read the IC50 as the concentration that gives 50% inhibition.
